This note sets out measurements from ChEMBL document CHEMBL3507680, “University of Dundee, Gates Library screen for HepG2 cell viability”.

The nature of the data set: Human HepG2 cell viability assay in 384 well format. Format: toxicity, cell-based. Set-up: dose 125 nL, time 70.5 hour; concentration not given beside the values. As to conditions: HepG2 cells, read-out: Inhibition.
As for `Cc1nonc1CN(C)Cc1c[nH]nc1-c1ccc(F)cc1F`, the cytotoxicity at 70.5 h was -14.1%.
Next, `CCc1ncc(C(=O)N2C[C@@H](C)O[C@@H](C)C2)cn1`: -5%; `Cc1ccc(C(=O)N2CCC(n3cc(CN)nn3)CC2)cc1F`: -5.32%.
Next, `O=C(Cc1c[nH]c(=O)[nH]c1=O)N1CCC2(CCC(=O)N(C3CC3)C2)CC1`: 0.183%; `CN(CCCc1cnn(C)c1)C(=O)Nc1cccc(C#N)c1`: -6.3%.
Next, `Cn1ccnc1-c1nc2cc(S(=O)(=O)N3CCCC3)ccc2n1C`: -26.2%.
For the molecule `CCc1ccc(CN(C)C(=O)C2CC(=O)N(c3cccc(O)c3)C2)nc1` (stereo unspecified), the cytotoxicity at 70.5 h is -0.196%.
Next, `Cc1noc(C)c1CN(C)Cc1cnc(N2CCOCC2)nc1`: -4.31%; `OCC1CCCCN1Cc1cc(O)c2cccc(F)c2n1` (stereo unspecified): 20.1%.
Next, `O=S1(=O)C[C@@H]2[C@H](C1)N(Cc1cc(F)cc(Cl)c1)CCN2CCO`: -0.108%; `CCCc1nc(N2CCC(CCO)CC2)c2cnn(C)c2n1`: -2.39%.
Next, `O=C(NCc1nnc2n1CCCC2)c1ccc(C2CCCO2)s1` (stereo unspecified): 18.3%.
Turning to `O=S1(=O)C[C@@H]2[C@H](C1)N(Cc1ccoc1)CCN2Cc1ccncc1`, the cytotoxicity at 70.5 h is -5.67%.
Next, `CN1CCC(n2nc(Cc3cccc(Cl)c3)nc2Cn2cnnn2)CC1`: 27.5%; `CNc1ncc(CN(C)C(=O)CCc2cc3n(n2)CCCNC3)cn1`: -9.14%; `Cc1cnccc1N1CCN(C(=O)C2CC3(CCNCC3)CN2)CC1` (stereo unspecified): -5.99%.
Next, `OCC1(O)CCCN(Cc2ccccc2OCCc2ccccc2)CC1` (stereo unspecified): -5.14%.
As for `CN(C)C[C@@H]1[C@H]2CN(C(=O)c3cc(=O)[nH]c4ccc(F)cc34)C[C@@H]12`, the cytotoxicity at 70.5 h amounted to 22.8%.
Next, `CN(CCc1ccccc1)C(=O)c1cc(CN2CCC(O)CC2)on1`: -5.34%; `COCCN(C)CCN1CC2(CCN(C3CCSC3)CC2)OC1=O` (stereo unspecified): -4.49%.
Next, `O=C(O)C1CN(Cc2cccc(-c3ccccn3)c2)CCO1` (stereo unspecified): -9.06%.
Next, `CC1(C)CNC(=O)c2nc(-c3n[nH]c(=O)[nH]3)[nH]c2C1`: -5.75%.
Turning to `CCN(CC)C(=O)[C@@H]1C[C@@H](N)CN1C(=O)c1cc2c([nH]c1=O)CCC2`, the cytotoxicity at 70.5 h is -10.8%.
Next, `Cc1nnsc1C(=O)N(C)Cc1nc(-c2ccccn2)no1`: -2.75%; `Cn1ncc2c(N3CCS(=O)(=O)CC3)nc(-c3cccnc3)nc21`: 6.33%; `Cc1cccc(NC(=O)N2CCOCC(CN(C)C)C2)c1C` (stereo unspecified): -6.8%.
Next, `CN[C@@H](C)C(=O)N(Cc1cccc(C)c1)Cc1ccccc1OC`: 14.5%.
Next, `COCCN(Cc1cccnc1)c1nc(C)nc2oc(C)nc12`: -5.28%.
In the case of `C[C@@H]1CN(C(=O)c2nc3ccc(Cl)cn3c2-c2ncc[nH]2)C[C@H](C)O1`, the cytotoxicity at 70.5 h is -14.7%.
Regarding `CCN(CC)C(=O)c1ccc(Cl)c(NC(=O)c2cc[nH]n2)c1`, the cytotoxicity at 70.5 h is 13.3%.
Next, `CCC[C@@H]1CN(S(=O)(=O)c2ccc(OC)c(OC)c2)C[C@H]1NC(C)=O`: 6.19%; `COCC[C@]1(O)CCN(C(=O)CCc2cnn(C)c2)C[C@H]1C`: -7.34%; `Cc1ccc(-c2cn[nH]c2C2CCCN(c3ncccn3)C2)cc1` (stereo unspecified): 22.7%.
Next, `Cc1cc(CN(C)C(C(=O)O)c2cccc(C(F)(F)F)c2)on1` (stereo unspecified): -7.95%; `COc1ccc2[nH]c3c(c2c1)CN(c1cc(NCCO)nc(N)n1)CC3`: -3.57%; `O=C(Nc1ccc(-c2ccccc2)cc1)N1C[C@@H]2CNC[C@]2(C(=O)O)C1`: -9.81%.
Next, `Cc1nc(CC(=O)N2CCCC2c2nc(-c3ccccc3)no2)cs1` (stereo unspecified): -3.06%; `CCCNCc1ccc(-c2ccnc3[nH]ccc23)cc1`: 29.1%; `CN(Cc1ccccc1-n1cccn1)C[C@@H]1CCCN2CCCC[C@H]12`: -8.12%.
Regarding `CCCc1nccn1-c1ccncc1`, the cytotoxicity at 70.5 h is -5.45%.
With `Cc1nn(C)c(C)c1CCC(=O)N1CCN(CCn2cncn2)CC1`, the cytotoxicity at 70.5 h was 14.9%.
Take `Cc1ccc(CCNC(=O)Cn2nc(C)n(Cc3ccccc3)c2=O)o1`: the cytotoxicity at 70.5 h was 19.8%.
Next, `CC(CNC(=O)c1cc(Cn2cnc3ccccc32)[nH]n1)N1CCCC1` (stereo unspecified): -7.82%; `Cc1c[nH]c(CN2CCC3(CCCN(Cc4ccc(F)c(F)c4)C3)C2)n1` (stereo unspecified): 0.269%.
Next, `CC(C)S(=O)(=O)N1CCOC(CCc2ccccc2)C1` (stereo unspecified): -8.39%; `CCCn1ccnc1CN1CCCC(O)(CN2CCCC2)C1` (stereo unspecified): -2.63%; `CC(C)C1CN(c2cnccn2)CCC(=O)N1Cc1ccc(F)cc1` (stereo unspecified): -0.619%.
Turning to `Cc1cccc(=O)n1CCC(=O)N1CC[C@](C)(O)[C@H](C)C1`, the cytotoxicity at 70.5 h is -9.5%.
Next, `Cc1ccc(F)cc1-n1c(COC(C)C)n[nH]c1=O`: -5.58%; `CC(C)Cc1cc(C(=O)N2CCC(Oc3cccnc3)CC2)n(C)n1`: -8.18%; `CNS(=O)(=O)c1ccc(CN2CCCC2c2ccc(F)cc2)cc1` (stereo unspecified): -5.9%.
Next, `Cc1ccc2[nH]c(CN(C)c3cc(CN)nc(C)n3)nc2c1`: 0.934%; `CCc1nnc(CN(C)Cc2cccc(C(=O)Nc3ccnn3C)c2)o1`: 1.53%.
Next, `CN1CCC(O)(CNC(=O)c2cc(COc3cccc(F)c3)[nH]n2)CC1`: -6.87%; `Cc1nc(N)ncc1C(=O)N1CCCC(CCc2ccccc2F)C1` (stereo unspecified): 17%.
Turning to `O=C(C1CCCCO1)N1CCc2ncnc(NCCO)c2CC1` (stereo unspecified), the cytotoxicity at 70.5 h is -2.71%.
Next, `CCOc1ccc(C(=O)N2CCCC(c3nccn3C)C2)cc1OCC` (stereo unspecified): -5.34%.
Next, `CCc1nn(C)c(Cl)c1CN1C[C@@H](NC(=O)N(C)C)[C@H](C(C)C)C1`: -5.68%.
For `COc1ccc(F)c(F)c1CN1CC(=O)N(c2ccccc2C)CC1C` (stereo unspecified), the cytotoxicity at 70.5 h is -11.4%.
Next, `Cc1cc2[nH]c(CN3CCOC(C(F)(F)F)C3)cc(=O)n2n1` (stereo unspecified): 17.8%; `Cc1cc2nc(C(C)C)cc(NC(C)c3nncn3C3CCCC3)n2n1` (stereo unspecified): -11.7%; `COc1cccc2c1OCCCN(c1nc(C)nc3c1CCNCC3)C2`: -5.98%.
Next, `O=C(NCC1=CCCCC1)C(c1cccnc1)N1CCCC1` (stereo unspecified): 31.3%.
Next, `CCn1c(C2CCN(C(=O)c3cc(C4CC4)on3)CC2)nn(C)c1=O`: -6.56%; `CCc1nc2c(c(NC3CC3)n1)CCN(C(=O)N1CCN(C)CC1)CC2`: -19.1%.
`Cc1cccc2c(CCNC(=O)[C@H](N)c3ccccc3)c[nH]c12`: the cytotoxicity at 70.5 h is -17.6%.
Consider `Cc1cc(-n2nc(C3CC3)nc2-c2csnn2)ccn1`, for which the cytotoxicity at 70.5 h is -10.1%.
Next, `CC(C)(O)CCc1ccc(C(=O)NCCC2CCCOC2)cc1` (stereo unspecified): -0.926%.
Next, `CN(Cc1n[nH]c2c1CCCCC2)C(=O)c1cc(-c2cccn2C)n[nH]1`: -5.14%; `NC(=O)NCCC(=O)N1CCC(c2cc(Cc3ccccc3)n[nH]2)CC1`: -6.87%.
On to `CC1=C(C(=O)NCCc2n[nH]c3c2CCCC3)C(C)NC(=O)N1` (stereo unspecified), for which the cytotoxicity at 70.5 h came to 14.6%.
Consider `O=C(NC1CCCN(CCCc2ccccc2)C1)C1=CCCCC1` (stereo unspecified), for which the cytotoxicity at 70.5 h is -0.678%.
Next, `CN(C)CCC1CCCCN1Cc1cnc(-c2ccccn2)nc1` (stereo unspecified): -3.63%; `Cc1ncsc1C(=O)N1CCn2nc(CN3CCSCC3)cc2C1`: -1.17%; `c1ccc(CCN2CCN(c3ncnc4[nH]ccc34)CC2)cc1`: -3.03%.
Next, `CC(C)CCN1CC2(CCCN(C(=O)CNC(=O)N(C)C)C2)CCC1=O` (stereo unspecified): -10.1%; `CC(C)=CCN1CCN(Cc2cc(C)n[nH]2)CC1CCO` (stereo unspecified): 4.87%; `CCC(=O)N1Cc2nnc(C3CCOCC3)n2C(Cc2c[nH]cn2)C1` (stereo unspecified): -7.01%.
Next, `c1ccc2sc(N3CCN(c4ncnc5c4CCC5)CC3)nc2c1`: 13.8%; `COCCN(C)C(=O)c1ccccc1-n1cccn1`: 5.05%; `COC(=O)N1CCCCC1C(=O)N1CCCN(c2ccnc(C)c2)CC1` (stereo unspecified): -7.79%.
`COc1cc(-c2nccn2C(C)CCn2cccn2)cc2c1OCO2` (stereo unspecified): the cytotoxicity at 70.5 h was found to be 1.97%.
Next, `Cc1cc(NCCSc2nccn2C)n2nc(C)c(C)c2n1`: -4.55%; `O=c1cc(CN2CCCCC2c2cccc(F)c2)[nH]c2ncnn12` (stereo unspecified): -10.8%.
Next, `O=c1c2cccc(Cl)c2ncn1C1CCNC1` (stereo unspecified): -10.4%; `CSCCC(O)C(=O)N1CCCN(Cc2ccc(F)cc2)CC1` (stereo unspecified): 8.69%; `Cc1cccc2[nH]c(C3CCCN(Cc4ccccc4C(=O)O)C3)nc12` (stereo unspecified): 8.18%.
In the case of `c1ccc(CN(Cc2cccc3cnccc23)CC2CCCO2)nc1` (stereo unspecified), the cytotoxicity at 70.5 h is -7.22%.
As to `C[C@@H]1CN(CCC(=O)N(C)Cc2ccccc2)C[C@@]1(O)C1CCC1`, the cytotoxicity at 70.5 h is -7.64%.
Next, `CN(Cc1cccnc1)c1nccc(N2CCN[C@H]3CS(=O)(=O)C[C@H]32)n1`: -3.96%; `COc1cccc(N2CCN(Cc3ccc4ccn(C)c4c3)CC2=O)c1`: -5.61%; `CN(C)C(C(=O)N1CC(c2ccccn2)C1)c1ccc2c(c1)OCO2` (stereo unspecified): -3.16%.
Next, `COc1ccccc1OCc1cc(C(=O)N2CCOCC2CO)n[nH]1` (stereo unspecified): -5.23%.
Next, `COc1cc(Oc2cnc3ccccc3n2)ccc1CN1CCCC1`: -3.39%; `CC(=O)N1C[C@H]2CNC[C@@]2(C(=O)NCCCOc2cccnc2)C1`: 20%; `C[C@@H]1CN(S(=O)(=O)N2CCCC2)CC[C@@]1(O)C1CCOCC1`: -14%.
